Results on three molecules are retold here after patent US12479803B2, “Antimalarial compounds” (UNIVERSITY OF CENTRAL FLORIDA RESEARCH FOUNDATION, INC., priority 2019, dated 2025).

In series [1] the test system is P. falciparum 3D7 strain (CQ-sensitive). Kind of series: In vitro antiplasmodium activity, 3D7 strain. The conditions noted are these: Table 6A, nM, footnote calls it IC50, read-out: Antiplasmodium activity 3D7 (converted). The class given is cell-based, Plasmodium falciparum. Here is the method:
(§1) A set of 104 new styrylquinoline derivatives were synthesized and investigated for in vitro their antimalarial activity. To test antimalarial activities, different dilutions of compounds were added to P. falciparum culture. Following 72 h incubation at 37° C. in an atmosphere containing 5% CO2, the inhibitory property of the compounds were determined by SYBR Green I fluorescence assay. Meanwhile, SARs studies were conducted.

A further series relates to HepG2. Kind of series: Cytotoxicity assay using MTS in human hepatocytes. The conditions noted are these: for SI, selectivity index = [IC50 (HepG2)/IC50 (Dd2)]: HepG2 versus Dd2. The series is classed as cell-based.
A short description of series [2]: Cytotoxicity assay using MTS in human hepatocytes. The class given is cell-based. To be noted: human, Table 6B, unit inferred, footnote IC50 (HepG2), read-out: Cytotoxic activity HepG2 (converted).
Series [3] concerns CQ-resistant (Dd2) strain of P. falciparum. Kind of series: In vitro antiplasmodial activity, SYBR Green I fluorescence assay, Dd2 strain. The class given is cell-based, Plasmodium falciparum. As to the method: as §1
The SAR studies were focused on improving the in vitro activity of 2-arylvinylquinolines against the CQ-resistant Pf Dd2 strain.

Series [4] relates to β-hematin crystal formation. Nature of the series: β-hematin inhibition experiment. The series is classed as biochemical. The conditions noted are these: 100 μM hemin, 16 h at 37° C., up to 200 μM compound. Here is the method: CQ and other aminoquinolines are known to fight against the malaria parasites by blocking hematin biocrystallization (hemozoin formation) through π-π stacking between the aminoquinoline scaffold and the heme. As a result, the accumulated toxic heme causes the parasite death by introducing oxidative membrane damage. β-hematin inhibition experiments were performed to determine possible mode of actions of arylvinylquinolines. FIG. 5A is an example according to various embodiments illustrating images of β-hematin crystals after incubation of 100 μM hemin, propionate buffer, phosphatidylcholine and, several concentrations of compound for 16 h at 37° C. […] In FIGS. 5A and 5B, the data are mean±SEM.

Series [5] can be described thus: In vitro microsomal turnover assay (metabolic stability). The conditions noted are these: for Clint / % remaining after 60 min: microsomes; for % remaining after 60 min: 1 h. Here is the method: Selectivity of compounds were determined by cytoxicity assay using MTS [(3-(4,5-dimethylthiazol-2-yl)-5-(3-carboxymethoxyphenyl)-2-(4-sulfophenyl)-2H-tetrazolium) in human hepatocytes. The metabolic stability of compounds was determined in mouse liver microsomes using an NADPH-regenerating system. The aqueous solubility at pH 7.4 was determined by UV-visible absorption based method. The permeability was assessed by the in vitro double-sink parallel artificial membrane permeability assay 52 that is a model for the passive transport from the gastrointestinal tract into the blood stream.
To assess the metabolic stability, the selected compounds were subjected to an in vitro microsomal turnover assay with mouse liver microsomal preparations. This assay determines the percentage of the parent compound residues after 60 min incubation (Table 7).

Series [6] has as its system asynchronous Dd2 parasite cultures. Kind of series: Kill kinetic experiments (rate of killing, parasitocidal/parasitostatic). The series is classed as cell-based, Plasmodium falciparum. The conditions noted are these: 5×EC50 (Atovaquone 6.6 nM) for 6, 12, 24 and 48 h. Here is the method:
To study whether arylvinylquinolines exerted their antiplasmodial activity through a parasitocidal or parasitostatic mechanism, kill kinetic experiments in Dd2 strain were performed. […] After washing to remove the inhibitors at these time points, the growth of the cultures was continued to be assessed for 96 h.
FIGS. 3A, 3B, 3C, and 3D are examples according to various embodiments illustrating rate of killing and parasitocidal/parasitostatic activity determination of arylvinylquinolines. […] After each exposure, cultures were washed three times in RPMI, resuspended in culture media, and monitored for parasite growth daily for 4 days. DHA and Atovaquone (50 nM and 6.6 nM) were included as fast and slow acting controls, respectively. Parasitemia was determined by microscopy of Giemsa stained smear.

Series [7] has as its target late stage (IV-V) gametocytes of 3D7 expressing luciferase parasite. Kind of series: In vitro gametocytocidal activity, late stage. To be noted: late stage gametocytes; means and SEMs of three experiments. The series is classed as cell-based, Plasmodium falciparum. The text has this:
(§2) Late stage (IV-V) gametocytes are more refractory to antimalarial drugs than early-stage gametocytes and blood stage parasites, and thus fewer compounds are effective against late stage Pf gametocytes. […] FIGS. 4A and 4B are an examples according to various embodiments illustrating results showing the activity of compound 24 on gametocyte stages, based on an evaluation of the viability of gametocytes after the exposure of compound 24 on early (A) and late (B) gametocytes stages of 3D7 expressing luciferase parasite. In FIGS. 4A and 4B, EC50 data represent the means and SEMs of three experiments. Therefore, arylvinylquinolines represented good leads as new antimalarials with promising dual stage (blood and gametocyte) activity.

Series [8] addresses early stage (I-III) gametocytes of 3D7 expressing luciferase parasite. Kind of series: In vitro gametocytocidal activity, early stage. To be noted: early stage gametocytes; means and SEMs of three experiments; read-out: Early stage IC50. The series is classed as cell-based, Plasmodium falciparum.
From the text: as §2

Series [9] has as its system tightly synchronized Dd2 parasites. Nature of the series: Developmental stage specific action (Giemsa microscopy and flow cytometry). The series is classed as cell-based, Plasmodium falciparum. To be noted: 5×EC50, treated at 6, 18, 30 and 42 h post-invasion. Here is the method: Accurate definition of the timing of action of antimalarial agents could give valuable insights into the developmental growth and clinical clearance of the parasite. To further understand the antimalarial activity of arylvinylquinolines, the developmental stage specific action of the most promising compound 24 was determined by both microscopy and flow cytometry analysis. Tightly synchronized cultures were exposed to 5×EC50 concentration of compound 24 at 6, 18, 30 and 42 hours post-invasion (HPI) of the merozoites. Microscopic analysis of Giemsa-stained-thin smears and flow cytometric evaluation were performed at 12 h intervals.
In FIGS. 2A and 2B, the results are representative of three independent biological replicates.
On the technique in general: In flow cytometry, cells or beads pass a laser one at a time.

For series [10] the following is noted: mouse liver microsomes; value reported from an initial study; cited from earlier work.
In series [11] the test system is malaria infection in mice. To be noted: cited from earlier work.

Like-named read-outs stand apart in the source and are kept apart here. Marks after values point to notes of the source that are not given here.

As for `CCN(CC)CCCC(C)Nc1ccnc2cc(Cl)ccc12` (stereo not drawn) [CQ, Chloroquine, reference compound], the EC50 in series [1] (Plasmodium falciparum, 3D7) is 17.8 ± 5.5 nM; in series [3] (Plasmodium falciparum, DD2, 72 h, CQ-resistant (Dd2) strain, 72 h incubation) it was 174 ± 15.5 nM; in series [3] (Plasmodium falciparum, DD2, read-out: Antiplasmodium activity Dd2, Table 6A, unit not given (text gives nM), footnote calls it IC50), 174 ± 15.5 nM. The “SI, selectivity index = [IC50 (HepG2)/IC50 (Dd2)]” value (“SI, selectivity index =” for short) in the series with HepG2 stood at 60. In series [2], the IC50 is 10.4 ± 0.86 µM. Further, the “RI, resistance index = [IC50 (Dd2)/IC50 (3D7)]” value (“RI, resistance index =” below) in [3] amounted to 9.8. For the same molecule, the “inhibitory activity towards β-hematin formation” value in series [4] was “potently inhibited”.
With `CN1CCN(CCNc2cc(/C=C/c3ccc(F)cc3)nc3ccc(Cl)cc23)CC1` [Compound 86], the EC50 is 15.7 ± 2.9 nM in series [1]; 15.3 ± 3.4 nM in series [3] (CQ-resistant (Dd2) strain, 72 h incubation, read-out: EC50 (nmol)); 15.3 ± 3.4 nM in [3] (Table 6A, unit not given (text gives nM), footnote calls it IC50, read-out: Antiplasmodium activity Dd2 (converted)). The “Projected t1/2” value in [5] came out at 60.3 min. The “Clint” value in series [5] (mouse) is 23.0 µL/min/mg. Besides, the “% remaining after 60 min” value in series [5] (mouse) came to 50.2%. The results for the IC50 (with HepG2; in series [7]; in series [8]) were 3.2 ± 0.491 µM, 2500 ± 424 nM and 910 ± 314 nM, respectively. The “SI, selectivity index =” value in the series on HepG2 was determined as 209. In addition, the “rate of killing (parasitemia after exposure and wash-out)” value in [6] was “remarkable reduction in parasitemias”. The “stage-specific inhibition of P. falciparum growth” value in series [9] was “stage-specific action at the trophozoite phase”. Also, in series [3], the “RI, resistance index =” value is on record as 1. Also, the “inhibitory activity towards β-hematin formation” value in series [4] was “much weaker than that of CQ”.
Turning to `CCN(CC)CCCC(C)Nc1cc(/C=C/c2ccc([N+](=O)[O-])cc2)nc2ccc(OC)cc12` (stereo not drawn) [Compound according to Formula 1, reference compound], the EC50 is 119 ± 3 nM in [1] (Plasmodium falciparum, 3D7); 67 ± 8 nM in [3] (Plasmodium falciparum, DD2, Table 6A, unit not given (text gives nM), footnote calls it IC50, read-out: Antiplasmodium activity Dd2 (converted)); 67 ± 8 nM in series [3] (Plasmodium falciparum, CQ-resistant (Dd2) strain, 72 h incubation, read-out: EC50 (nmol)); 67 ± 8 nM in series [3] (Plasmodium falciparum, Dd2 strain, read-out: EC50). Further, the “% remaining after 60 min” value in series [10] was 47.8^a %; in series [5] (mouse) it was 36.7%. Further, in series [10], the “Projected t1/2 (min)” value is given as 56.2^a min. Also, in series [5] (mouse), the “Projected t1/2” value amounted to 41.5 min. The “Clint” value in series [5] (mouse) worked out at 33.4 µL/min/mg. Moreover, the “SI, selectivity index =” value in the series on HepG2 is listed as 193; with HepG2 (listed as Compd. of Formula 1) it was 192. For the same molecule, the IC50 in series [2] (HepG2 cells (human hepatocytes)) is 12.92 ± 0.0701 µM. Also, the “mice cured of malaria infection” value in series [11] (100 mg/kg twice daily po, previous study) is given as 4/5. In addition, the “in vivo efficacy (efficacious dose)” value in series [11] (twice daily, po) is 100 mg/kg. Besides, in [3] (Dd2 versus 3D7), the “RI, resistance index =” value is listed as 0.6.
